test: gradient 5% acetonitrile 3 min, to 50% in 2 min, to 85% in 15 min, held 3 min, 100 µL/min; details: column: Zorbax Extend-C18 2.1 x 50 mm; eluents: water / acetonitrile, 0.1% formic acid
Summary of the method: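 A Zorbax Extend-C18 column (2.1 × 50 mm, 1.8 μm) run at 100 μL/min with water and acetonitrile, both containing 0.1% formic acid, separated mixtures of ~100 pure standards. The HPLC was coupled to a quadrupole time-of-flight mass spectrometer operated in positive and negative ionization mode, with dead and dwell volumes of 40 μL and 900 μL. Each retention time was taken from a computationally picked adduct peak that was then manually inspected.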

| Compound | RP-LC retention time [s] |
| --- | --- |
| COc1ccc(-c2noc(Cc3nc(-c4cc(C)c(C)cc4C)cs3)n2)cc1 | 1340 |
| Cc1ccc(-n2ccnc2SCc2nc(-c3cccc(F)c3)no2)cc1 | 971 |
| O=C(NC(c1ccccc1)c1nnc(-c2ccccc2Cl)o1)c1ccco1 (configuration not stated) | 908 |
| COCc1c(C(=O)O)nnn1-c1ccc2c(c1)CCC2 | 777 |
| O=C(O)c1ccccc1SC1CC(=O)N(c2ccccc2OC(F)F)C1=O (configuration not stated) | 741 |
| COCCc1noc([C@@H]2CN(Cc3cccc4[nH]ccc34)C[C@H]2CO)n1 | 554 |
| CCc1nc2cc(N3CCCC(C(=O)Nc4ccc(OC)cc4OC)C3)cnc2nc1CC (configuration not stated) | 934 |
| O=C(Cc1nnc2c(-c3nc(C4CC4)no3)cccn12)N1CCCCC1 | 616 |
| Cc1cc2ncn(S(=O)(=O)N3CCCC3)c2cc1C | 837 |
| Cc1noc(C2CN(C(=O)Nc3ccc(F)c(Cl)c3)CC23CCOCC3)n1 (configuration not stated) | 783 |
| Cn1c(=O)c(N2CCCC(C(=O)N3CCCCCC3)C2)nc2cccnc21 (configuration not stated) | 918 |
| Cc1ccc(NC(=O)Cn2c(C)nc3c(sc4nc(-c5ccccc5)ccc43)c2=O)c(Cl)c1 | 1140 |
| Cc1ccc(N2CC(c3noc(C4(c5ccccc5)CC4)n3)CC2=O)cc1 (configuration not stated) | 989 |
| Cc1ccc(C(=O)N2CC=C(C(=O)NC3CC3)CC2)cc1C | 797 |
| COc1ccc(C(=O)N2c3nc(-c4ccccc4)nn3C3(CCCCC3)[C@@H]3CCCC[C@@H]32)cc1OC | 1420 |
| COCC(=O)N(C1CCOCC1)C1CCN(S(=O)(=O)c2ccccc2C)CC1 | 737 |
| O=C(CCSc1nnnn1-c1ccccc1)Nc1ccc2c(c1)OCO2 | 794 |
| CC(=O)c1ccc2c3c(cccc13)C(=O)N(c1ccccc1)C2=O | 811 |
| COc1ccccc1-c1noc(Cn2c(=O)n(CCc3ccccc3)c(=O)c3sccc32)n1 | 1030 |
| Cc1c(CN2CC(F)(F)C[C@H]2COc2ccncc2)cnn1C | 502 |
| CCOc1ccc(-c2noc(Cn3c(=O)n(-c4ccc(F)cc4)c(=O)c4sccc43)n2)cc1OC | 940 |
| CN(C)c1cccc(-c2nn3c(CSc4ccccc4)nnc3s2)c1 | 1070 |

| Compound | RP-LC retention time [s] |
| --- | --- |
| Cc1nc(C)c(CCNC(=O)c2ccc(C)c([N+](=O)[O-])c2)s1 | 614 |
| Cc1ccc(Nc2c(-c3ccc(N(C)C)cc3)nc3ncccn23)cc1Cl | 805 |
| O=c1c2cnn(Cc3ccccc3F)c2ncn1Cc1cccc(C(F)(F)F)c1 | 928 |
| Cc1ccc(-c2nc3cnccn3c2Nc2cccc(Cl)c2C)cc1 | 1080 |
| CC(C)n1c(=O)oc2cc(-c3noc(CCc4ccccc4)n3)ccc21 | 1140 |
| O=C(COc1cc(O)c2c(=O)c3ccccc3oc2c1)c1ccc(Br)cc1 | 1280 |
| COc1ccc(CN2C[C@@H]3C(=O)N(C)C(=O)[C@@H]3C2)cc1OC | 566 |
| COC(=O)c1c(C)[nH]c(C(=O)N2CCC(CC(=O)NCc3cccc(F)c3)CC2)c1C | 735 |
| O=c1c2cc3c(cc2nc(SCc2nc(-c4ccccc4)no2)n1CC1CCCO1)OCO3 (configuration not stated) | 1100 |
| COc1ccc(Nc2n[nH]nc2C(=O)Nc2ccccc2Br)cc1 | 1050 |
| Cn1c(=O)n(CC(N)=O)c(=O)c2c1nc1n2CCCN1C1CCCCC1 | 657 |
| O=c1c2c(CO)c(-c3ccccc3)nn2ccn1CCc1ccccc1 | 926 |
| COc1ccc(N2CC(c3nc(-c4cc(OC)c(OC)c(OC)c4)no3)CC2=O)cc1Cl (configuration not stated) | 905 |
| CCc1cccc(NC(=O)Cn2c(N)nc(COC)cc2=O)c1 | 650 |
| CCCN1C(=O)C(NC(=O)c2cccc(OC)c2)(C(F)(F)F)C(C(=O)OC)=C1C (configuration not stated) | 946 |
| Cn1c(CNC(=O)CSc2nnc3c4ccccc4nc(-c4ccco4)n23)nc2ccccc21 | 632 |
| Cc1ccc(C#CC(C)(O)C(C)(C)C)cn1 (configuration not stated) | 722 |
| CCc1nc(-c2nnn(-c3ccc(F)cc3)c2C)no1 | 874 |
| CCc1nc(-c2csc(S(=O)(=O)N3CCCC(C(=O)Nc4cc(C)on4)C3)c2)no1 (configuration not stated) | 896 |
| Fc1ccc(CN2CCCCC2c2nc(-c3cnccn3)no2)c(F)c1 (configuration not stated) | 738 |
| Cc1ccn2cc(-c3ccc(NC(=O)c4ccc5ccccc5c4)cc3)nc2n1 | 710 |

Second part, the compound after the results:

| RP-LC retention time [s] | Compound |
| --- | --- |
| 629 | Cc1cc(Cl)ccc1S(=O)(=O)N1CCn2c(nnc2C2CCN(C(C)C)C2)C1 (configuration not stated) |
| 717 | NC(=O)C1CCN(C(c2cccc(Cl)c2)c2sc3nc(-c4ccco4)nn3c2O)CC1 (configuration not stated) |
| 605 | CCN1CCN(C(=O)c2cn(-c3cc(N4CCSCC4)ncn3)cn2)CC1 |
| 900 | CCC(C)NC(=O)c1cc(COc2ccc(NC(=O)C(C)(C)C)cc2)on1 (configuration not stated) |
| 924 | CC(=O)N1c2ccc(S(=O)(=O)N3CCCCC3)cc2CC1C(=O)NCCc1ccc(Cl)cc1 (configuration not stated) |
| 1000 | CC1(C)CC(=O)c2cn(-c3ccc(F)cc3)c(=O)c(C(=O)Nc3ccc4c(c3)OCCO4)c2C1 |
| 792 | CN1C(=O)c2cc(C(=O)NCc3ccccc3F)nn2CC1(C)C(=O)NCc1ccc(F)cc1 (configuration not stated) |
| 708 | COc1ccc(NC(=O)NCCCn2c(C(F)(F)F)nc3cccnc32)c(OC)c1 |
| 796 | O=C(CCn1cnc2cc(-c3noc(-c4ccc(Br)o4)n3)ccc21)N1CCCCC1 |
| 613 | CCCN1CCN(C(=O)c2noc3c2CCCCC3)CC1 |
| 569 | CCN1CCN(CCCNC(=O)c2ccc(CS(=O)c3ccc(Cl)cc3)o2)CC1 (configuration not stated) |
| 770 | Cc1cccc2c(=O)n(C3CCN(C(=O)Nc4ccc(F)cc4F)CC3)cnc12 |
| 930 | Cc1ccc(NC(=O)Cn2cccc2-c2nnc(C3CC3)o2)c(Cl)c1 |
| 600 | Cn1nc2n(c1=O)CCN(Cc1cn[nH]c1-c1ccc(F)cc1)C2 |
| 608 | CCN(CC)CCCNC(=O)C1c2cc(OC)c(OC)cc2C(=O)N2CCc3ccccc3C12 (configuration not stated) |
| 589 | O=C(NCCN1CCOCC1)c1cccc(Nc2c(-c3ccccc3)nc3cnccn23)c1 |
| 772 | Cc1ccc(-n2cc3c(N4CCCC(C(=O)NCc5cccc(C(F)(F)F)c5)C4)ncnc3n2)cc1 (configuration not stated) |
| 1010 | CCOc1ccc(CC(=O)N2CCCC2c2nc(-c3ccccc3)no2)cc1OCC (configuration not stated) |
| 735 | O=C(NCC1CCOCC1)Nc1cccc(Cl)c1 |
| 901 | Cc1ccc(-n2nc(N3CCCC(C(=O)NCc4ccccc4)C3)ccc2=O)cc1Cl (configuration not stated) |
| 613 | CC(C)CN1CCn2cc(C(=O)N3CCN(c4ccc(F)cc4)CC3)nc2C1 |
| 755 | CCCS(=O)(=O)N(C)C1CCc2nn(Cc3ccccc3)c(=O)n2CC1 (configuration not stated) |

| RP-LC retention time [s] | Compound |
| --- | --- |
| 614 | COc1ccc(N2CCN(Cc3nc4ccccc4[nH]c3=O)CC2)cc1 |
| 926 | Cc1ccc(NC(=O)C2CCCN(S(=O)(=O)c3c[nH]c(C(=O)N4CCCCCC4)c3)C2)cc1 (configuration not stated) |
| 563 | COc1cc(NC(=O)NCC(c2cccn2C)N2CCOCC2)cc(OC)c1 (configuration not stated) |
| 603 | CCN1CCN(c2cc(C)c3cc(NC(=S)N4CCN(c5ccccc5)CC4)ccc3n2)CC1 |
| 1050 | O=C(Nc1ccc(Cl)cc1F)C1CCCN(C(=O)Cc2cccc3ccccc23)C1 (configuration not stated) |
| 869 | O=C(O)C1CCN(c2nc3ccc(-c4ccccc4F)nc3s2)CC1 |
| 958 | COc1ccc(Cl)cc1NS(=O)(=O)c1ccc2c(c1)C(=O)N(C)c1ncccc1O2 |
| 858 | O=C(CCCn1c(=O)c2cccn2c2ccc(F)cc21)NCCc1c[nH]c2ccccc12 |
| 858 | O=C(Nc1nnc(Cc2cccs2)o1)c1cc2cc([N+](=O)[O-])ccc2s1 |
| 903 | O=C(NCCc1ccccc1)Nc1nccn(-c2ccc(F)c(F)c2)c1=O |
| 594 | CCCCNC(=O)C1CCCN(c2nnc3c(Cl)cccn23)C1 (configuration not stated) |
| 740 | CCCS(=O)(=O)N1CCC[C@H]1c1nc(-c2ccc(F)cc2)n[nH]1 |
| 599 | CC(C(=O)NCCCN1CCOCC1)n1c2ccccc2c2cnn(C)c(=O)c21 (configuration not stated) |
| 941 | CC(=O)N1c2ccc(S(=O)(=O)N3CCCCC3)cc2CC1C(=O)NCCc1ccc(C)cc1 (configuration not stated) |
| 755 | CCOc1ccc(NC(=O)Cn2c(C)nc3onc(C)c3c2=O)cc1 |
| 646 | Cc1ccc(NC(=O)CCc2ccc3nc[nH]c3c2)cc1Cl |
| 636 | Cc1onc(-c2ccccc2Cl)c1C(=O)NC1CC(=O)N(C2CC2)C1 (configuration not stated) |
| 931 | Cc1ccc(-n2c(=O)c3c(cc(C)n3C)n(CC(=O)Nc3ccc(C)c(F)c3)c2=O)cc1 |
| 665 | Cc1csc(CN2CCN(C(=O)CC(c3ccccc3)c3ccccc3)CC2)n1 |
| 916 | COc1cc(OC)c(NC(=O)N2CCCC(C)(C(=O)NCc3ccc(F)cc3)C2)cc1Cl (configuration not stated) |
| 973 | CCN1CCCc2cc(C(=O)NCc3ccc(OC)cc3OC)sc21 |
| 895 | Cc1ccc(NC(=O)Cn2c(=O)nc(N3CCCC(C)C3)c3ccccc32)cc1C (configuration not stated) |
